Data taken from patent US9487462B2, “Inhibitors of matrix metalloproteinases” (PharmaHungary 2000 Kft., priority 2010, dated 2016).
Like-named read-outs stand apart in the source and are kept apart here.

Assays:
[1] = system: neonatal rat cardiac myocytes; assay: Cytoprotective effect in cardiac myocytes subjected to hypoxia and reoxygenation; format: cell-based
Protocol: Neonatal rat hearts were digested and isolated cardiomyocytes were plated onto 24-well plastic plates at […]. The cells were maintained at 37° C. in a humidified atmosphere of 5% CO2 and 95% air in a CO2 incubator until confluence was reached. Cultures at day 3 were used for treatments. Cells were kept under normoxic or simulated ischemic conditions, i.e. the growth medium was changed to a normoxic or hypoxic solution and the cells were incubated under 95% air and 5% CO2 or 95% N2 and 5% CO2 at 37° C. for 4 h, respectively as described in detail (Gorbe A, Giricz Z, Szunyog A, Csont T, Burley D S, Baxter G F, Ferdinandy P. Role of cGMP-PKG signaling in the protection of neonatal rat cardiac myocytes subjected to simulated ischemia/reoxygenation. Basic Res Cardiol. 105:643-650, 2010). The positive control ilomastate (0.5 microM) and MMP-inhibitors at different effective concentrations (EC 5, EC 10, EC 20, and EC50 as determined in previous test examples) were applied during normoxia or simulated ischemia and also during reoxygenation. The vehicle was DMSO. Cell viability was determined after Calcein A M fluorescent staining as described (Karliner J S, Honbo N, Summers K, Gray M O, Goetzl E J. The lysophospholipids sphingosine-1-phosphate and lysophosphatidic acid enhance survival during hypoxia in neonatal rat cardiac myocytes. J Mol Cell Cardiol, 33:1713-7, 2001). Total cell count was determined after digitonin treatment to permeabilize the cells by using propidium iodine fluorescent staining (Roy S S, Hajnoczky G. Calcium, mitochondria and apoptosis studied by fluorescence measurements. Methods. 46:213-223, 2008).

[2] = Cytotoxicity, alamarBlue viability, HCT116; format: cell-based; conditions: human, HCT116 colon tumor cells, 48 hours incubation, read-out: HCT116 LC50
Protocol: (§1) Beside the inhibitory effect on MMPs we tested the cytotoxicity of the selected compounds. These measurements were done in parallel on two cell lines. One of them was the healthy human fibroblast cell line MRC-5 while the other was the human colon tumor cell line HCT116. The viability of the cells was monitored using alamarBlue. This dye is reduced by the cells resulting in an increased fluorescent signal which is proportional to the number of living cells. Cells were incubated with the dilutions of the tested compounds for 48 hours then alamarBlue was added to them for 4 hours. After that the fluorescence changes were detected using excitation at 540 nm and emission wavelength of 590 nm by a Wallac 1420 Microplate Reader. IC50 values were determined for the compounds using six concentrations and duplicate points for each concentration.

MMP9 = MMP9 (Homo sapiens, UniProt P14780); assay: MMP activity assay (fluorogenic substrate), MMP9 catalytic domain; format: biochemical; conditions: Table 2
Protocol: (§2) MMP activity assays were conducted as follows: MMP2, MMP9, MMP13 catalytic domain was expressed in E. coli in form of inclusion bodies followed by refolding and purification.
(§3) The Protocol of the Activity Assay:
(§4) Stock solution of substrate (Mca-Lys-Pro-Leu-Gly-Leu-Dpa-Ala-Arg-NH2) was prepared in DMSO at a concentration of 6 mM. Assays were performed in an assay buffer (50 mM Tris pH 7.5, 300 mM NaCl, 10 μM ZnSO4, 5 mM CaCl2, 0.005% Brij-35). The final DMSO concentration in all assays was 1.0%. […] The assays were carried out at 37° C. The fluorescence changes, resulting from the substrate cleavage, were detected using excitation at 340 nm and emission wavelength of 405 nm using a Wallac 1420 Microplate Reader. The reaction mixtures were preincubated with the inhibitors for 30 minutes. The reactions were started by the addition of MMP substrate, and the fluorescence intensity changes were measured after 60 minutes. The obtained fluorescence values were normalized and % inhibition values calculated. Dose response curves were determined from 6 concentration points using three fold dilution steps, each concentration point was determined in duplicate. IC50 values were calculated from the dose response curves.

MMP13 = MMP13 (Homo sapiens (Human), UniProt P45452); assay: MMP activity assay (fluorogenic substrate), MMP13 catalytic domain; format: biochemical
Protocol: as §2, §3
as §4, with “The fluorescence changes, resulting from the substrate cleavage, were detected using excitation at 340 nm and emission wavelength of 405 nm using a Wallac 1420 Microplate Reader.” left out

[3] = Cytotoxicity, alamarBlue viability, MRC-5; format: cell-based; conditions: human, MRC-5 fibroblast cells, 48 hours incubation, read-out: MRC-5 LC50
Protocol: as §1

MMP2 = MMP2 (Homo sapiens, UniProt P08253); assay: MMP activity assay (fluorogenic substrate), MMP2 catalytic domain; format: biochemical; conditions: Table 2; read-out: MMP2 IC50
Protocol: as §2, §3, §4

MMP1 = MMP1 (Homo sapiens (Human), UniProt P03956); assay: MMP activity assay (fluorogenic substrate), MMP1; format: biochemical; conditions: Table 2; read-out: MM1 IC50
MMP-2 = MMP-2 (Rattus norvegicus (Rat), UniProt P33436); assay: In vitro zymography assay (gelatin), MMP-2; format: biochemical; conditions: for % inhibition MMP-2 (72 kDa): 1 μM; for % inhibition MMP-2 (72 kDa) / inhibition at 100 µM: % ± SD; for inhibition at 100 µM: read-out: % inhibition MMP-2 (72 kDa)
Protocol: MMP-2 and MMP-9 enzymes were isolated from rat hearts and from rat spleen while human, recombinant MMP-1 and MMP-13 enzymes used were commercial. MMP-2, -9, -13 enzymes were separated by electrophoresis during non-reducing conditions on 8% SDS-polyacrylamide gels copolymerized with 2 mg/ml gelatin from porcine skin (Sigma Aldrich) while MMP-1 was separated under the same conditions on 8% SDS-polyacrylamide gels copolymerized with 2 mg/ml casein (Sigma Aldrich). […] In case of MMP-13 p-aminophenylmercuric acetate (APMA) was used for enzyme activation at 37° C. for 30 min. After electrophoresis, gels were washed in 2.5% Triton-X 100 with agitation and then incubated for 20 hrs at 37° C. in enzyme incubation buffer (50 mM Tris-HCl, pH 7.5, containing 5 mM CaCl2, 200 mM NaCl) with or without MMP inhibitor. Zymographic gels were stained in Coomassie Brilliant Blue R-250 and de-stained. Gelatin and casein zymograms were scanned. MMP activity is detected as a white zone on a blue background and the clear bands in the gel can be quantified by densitometry. The obtained density values were measured and % inhibition values calculated (Kupai et al., 2010). The table below summarizes the prescreen inhibition values determined for different MMP inhibitors on MMP1, -2, -9, -13.

MMP-2, sequence (P33436 110-662): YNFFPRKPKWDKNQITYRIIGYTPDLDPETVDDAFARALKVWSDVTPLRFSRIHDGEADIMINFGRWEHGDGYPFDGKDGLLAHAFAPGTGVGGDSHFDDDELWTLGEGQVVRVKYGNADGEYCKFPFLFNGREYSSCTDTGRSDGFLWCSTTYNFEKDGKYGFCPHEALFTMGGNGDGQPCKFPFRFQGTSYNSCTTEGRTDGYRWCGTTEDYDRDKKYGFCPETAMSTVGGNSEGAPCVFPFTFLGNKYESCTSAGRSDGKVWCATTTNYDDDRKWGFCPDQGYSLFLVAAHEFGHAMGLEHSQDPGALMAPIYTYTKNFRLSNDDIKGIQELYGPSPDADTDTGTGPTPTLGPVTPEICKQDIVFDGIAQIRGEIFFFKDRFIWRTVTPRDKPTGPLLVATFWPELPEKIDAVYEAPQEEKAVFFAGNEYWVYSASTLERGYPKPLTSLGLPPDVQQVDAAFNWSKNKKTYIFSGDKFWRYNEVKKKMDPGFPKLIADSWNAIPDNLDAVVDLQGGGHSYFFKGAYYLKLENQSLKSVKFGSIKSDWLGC
MMP1, sequence (P03956 100-469, species assumed): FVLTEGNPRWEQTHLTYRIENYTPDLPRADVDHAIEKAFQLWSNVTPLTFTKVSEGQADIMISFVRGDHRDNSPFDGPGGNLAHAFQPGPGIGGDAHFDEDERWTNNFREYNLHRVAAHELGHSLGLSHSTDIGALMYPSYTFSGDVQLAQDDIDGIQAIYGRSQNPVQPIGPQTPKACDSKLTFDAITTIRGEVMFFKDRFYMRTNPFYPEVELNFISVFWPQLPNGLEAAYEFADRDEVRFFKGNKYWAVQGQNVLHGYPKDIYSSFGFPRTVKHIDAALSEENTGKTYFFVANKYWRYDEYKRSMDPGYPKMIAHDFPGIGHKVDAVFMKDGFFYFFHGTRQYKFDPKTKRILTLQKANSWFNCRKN

IC50 (MMP9) [µM] | IC50 (MMP13; Table 2, read-out: MMP13 IC50) [µM] | IC50 (MMP2) [µM] | IC50 (MMP1) [µM] | SMILES | CC50 at 48 h [2] [µM] | CC50 at 48 h [3] [µM] | further results
> 500 | 10 | > 500 | 235 | O=C(O)c1c[nH]c(CNCc2ccc(OCc3cccnc3)cc2)n1 [Compound 31, 2-[({[4-(Pyridin-3-ylmethoxy)phenyl]methyl}amino)methyl]-1H-imidazole-4-carboxylic acid] | 70 | 200 | Cytoprotective effect, % cell survival as compared to vehicle DMSO ([1]; normoxia, EC5 concentration 0.3 microM): 97 ± 4%; Cytoprotective effect, % cell survival as compared to vehicle DMSO ([1]; normoxia, EC10 concentration 0.6 microM): 102 ± 5%; Cytoprotective effect, % cell survival as compared to vehicle DMSO ([1]; normoxia, EC20 concentration 1.2 microM): 104 ± 3%; Cytoprotective effect, % cell survival as compared to vehicle DMSO ([1]; normoxia, EC50 concentration 2.5 microM): 105 ± 4%; Cytoprotective effect, % cell survival as compared to vehicle DMSO ([1]; simulated ischemia, EC5 concentration 0.3 microM): 109 ± 5%; Cytoprotective effect, % cell survival as compared to vehicle DMSO ([1]; simulated ischemia, EC10 concentration 0.6 microM): 103 ± 4%; Cytoprotective effect, % cell survival as compared to vehicle DMSO ([1]; simulated ischemia, EC20 concentration 1.2 microM): 111 ± 4%; Cytoprotective effect, % cell survival as compared to vehicle DMSO ([1]; simulated ischemia, EC50 concentration 2.5 microM): 147 ± 2 %
9.8 | 4.7 | 25 | 6 | O=C(O)c1csc(CN(Cc2ccc(OCc3ccccc3)cc2)Cc2cccc(F)c2)n1 [Compound 5, 2-[({[4-(Benzyloxy)phenyl]methyl}[(3-fluorophenyl)methyl]amino)methyl]-1,3-thiazole-4-carboxylic acid] | 3.5 | 43 | % inhibition MMP-2 (72 kDa) (MMP-2): No inhibition; inhibition at 100 µM (MMP-2): 11.1 ± 1.58%
280 | 5 | > 500 | 340 | CCOC(=O)c1csc(CN(Cc2ccc(OCc3ccccc3)cc2)Cc2cccnc2)n1 [Compound 16, Ethyl 2-[({[4-(benzyloxy)phenyl]methyl}(pyridin-3-ylmethyl)amino)methyl]-1,3-thiazole-4-carboxylate] | 1.8 | 1.9 | Cytoprotective effect, % cell survival as compared to vehicle DMSO ([1]; normoxia, EC5 concentration 4.0 microM): 105 ± 2%; Cytoprotective effect, % cell survival as compared to vehicle DMSO ([1]; normoxia, EC10 concentration 8.0 microM): 108 ± 3 %; Cytoprotective effect, % cell survival as compared to vehicle DMSO ([1]; normoxia, EC20 concentration 16.0 microM): 99 ± 2%; Cytoprotective effect, % cell survival as compared to vehicle DMSO ([1]; normoxia, EC50 concentration 32.0 microM): 91 ± 2 %; Cytoprotective effect, % cell survival as compared to vehicle DMSO ([1]; simulated ischemia, EC5 concentration 4.0 microM): 119 ± 3 %; Cytoprotective effect, % cell survival as compared to vehicle DMSO ([1]; simulated ischemia, EC10 concentration 8.0 microM): 119 ± 3 %; Cytoprotective effect, % cell survival as compared to vehicle DMSO ([1]; simulated ischemia, EC20 concentration 16.0 microM): 122 ± 4 %; Cytoprotective effect, % cell survival as compared to vehicle DMSO ([1]; simulated ischemia, EC50 concentration 32.0 microM): 113 ± 4 %
> 500 | 8 | 90 | 240 | O=C(O)c1csc(CN(Cc2ccc(OCc3ccccc3)cc2)Cc2cccnc2)n1 [Compound 14, 2-[({[4-(Benzyloxy)phenyl]methyl}(pyridin-3-ylmethyl)amino)methyl]-1,3-thiazole-4-carboxylic acid] | 19 | 42 | % inhibition MMP-2 (72 kDa) (MMP-2): No nhibiton; inhibition at 100 µM (MMP-2): 100%
 |  |  |  | CNC(=O)[C@H](Cc1c[nH]c2ccccc12)NC(=O)[C@@H](CC(=O)NO)CC(C)C [ilomastat, reference compound] |  |  | cytoprotective effect as compared to vehicle-treated cells ([1]; positive control, 0.5 microM): approximately 120%; IC50 (MMP13; read-out: IC50 on MMP13): 0.0002 µM; IC50 (MMP-2): 0.00071 µM
163 | 3.7 | 105 | 185 | CCOC(=O)c1csc(CN(Cc2ccc(F)cc2)Cc2ccc(OCc3cccnc3)cc2)n1 [Compound 2, Ethyl 2-({[(4-fluorophenyl)methyl]({[4-(pyridin-3-ylmethoxy)phenyl]methyl})amino}methyl)-1,3-thiazole-4-carboxylate] | 0.5 | 0.8 | 
> 500 | 1.5 | 54 | 115 | O=C(O)c1csc(CN(Cc2ccncc2)Cc2ccc(OCc3ccccc3)cc2)n1 [Compound 13, 2[({[4-(Benzyloxy)phenyl]methyl}(pyridin-4-ylmethyl)amino)methyl]-1,3-thiazole-4-carboxylic acid] | 20 | 11 | 
200 | 31 | > 500 | 90 | CCOC(=O)c1csc(CN(Cc2ccc(F)cc2)Cc2ccc(-c3ccccc3)cc2)n1 [Compound 32, 2-{[Biphenyl-4-ylmethyl-(4-fluoro-benzyl)-amino]-methyl}-thiazole-4-carboxylic acid ethylester] | 0.7 | 13 | 
20 | 3 | 30 | 17 | O=C(O)c1csc(CN(Cc2ccc(F)cc2)Cc2ccc(-c3ccccc3)cc2)n1 [Compound 15, 2-({[(4-Fluorophenyl)methyl][(4-biphenyl)methyl]amino}methyl)-1,3-thiazole-4-carboxylic acid] | 1 | 2.9 | Cytoprotective effect, % cell survival as compared to vehicle DMSO ([1]; normoxia, EC5 concentration 3.0 microM): 95 ± 2%; Cytoprotective effect, % cell survival as compared to vehicle DMSO ([1]; normoxia, EC10 concentration 10.0 microM): 99 ± 2%; Cytoprotective effect, % cell survival as compared to vehicle DMSO ([1]; normoxia, EC20 concentration 30.0 microM): 100 ± 2%; Cytoprotective effect, % cell survival as compared to vehicle DMSO ([1]; normoxia, EC50 concentration 90.0 microM): 83 ± 2 %; Cytoprotective effect, % cell survival as compared to vehicle DMSO ([1]; simulated ischemia, EC5 concentration 3.0 microM): 109 ± 5%; Cytoprotective effect, % cell survival as compared to vehicle DMSO ([1]; simulated ischemia, EC10 concentration 10.0 microM): 117 ± 5 %; Cytoprotective effect, % cell survival as compared to vehicle DMSO ([1]; simulated ischemia, EC20 concentration 30.0 microM): 114 ± 4 %; Cytoprotective effect, % cell survival as compared to vehicle DMSO ([1]; simulated ischemia, EC50 concentration 90.0 microM): 88 ± 4%
